PMC9019169, “Direct Regulation of Hyperpolarization-Activated Cyclic-Nucleotide Gated (HCN1) Channels by Cannabinoids” (Frontiers in Molecular Neuroscience, 2022)

What was measured:
mouse HCN1 (mHCN1) [1] = target: T1, mouse HCN1 (mHCN1) (Mus musculus, UniProt O88704); assay: two-electrode voltage clamp, Xenopus oocytes, Hill fit of current; assay type: cell-based
T1 construct: full-length wild-type cDNA in pGH19, cRNA expressed in Xenopus laevis oocytes; homotetrameric channel

mouse HCN1 (mHCN1) [2] = target: T1, mouse HCN1 (mHCN1); assay: as above; assay type: cell-based; details: read-out: relative IC50

T1 sequence (O88704 whole entry): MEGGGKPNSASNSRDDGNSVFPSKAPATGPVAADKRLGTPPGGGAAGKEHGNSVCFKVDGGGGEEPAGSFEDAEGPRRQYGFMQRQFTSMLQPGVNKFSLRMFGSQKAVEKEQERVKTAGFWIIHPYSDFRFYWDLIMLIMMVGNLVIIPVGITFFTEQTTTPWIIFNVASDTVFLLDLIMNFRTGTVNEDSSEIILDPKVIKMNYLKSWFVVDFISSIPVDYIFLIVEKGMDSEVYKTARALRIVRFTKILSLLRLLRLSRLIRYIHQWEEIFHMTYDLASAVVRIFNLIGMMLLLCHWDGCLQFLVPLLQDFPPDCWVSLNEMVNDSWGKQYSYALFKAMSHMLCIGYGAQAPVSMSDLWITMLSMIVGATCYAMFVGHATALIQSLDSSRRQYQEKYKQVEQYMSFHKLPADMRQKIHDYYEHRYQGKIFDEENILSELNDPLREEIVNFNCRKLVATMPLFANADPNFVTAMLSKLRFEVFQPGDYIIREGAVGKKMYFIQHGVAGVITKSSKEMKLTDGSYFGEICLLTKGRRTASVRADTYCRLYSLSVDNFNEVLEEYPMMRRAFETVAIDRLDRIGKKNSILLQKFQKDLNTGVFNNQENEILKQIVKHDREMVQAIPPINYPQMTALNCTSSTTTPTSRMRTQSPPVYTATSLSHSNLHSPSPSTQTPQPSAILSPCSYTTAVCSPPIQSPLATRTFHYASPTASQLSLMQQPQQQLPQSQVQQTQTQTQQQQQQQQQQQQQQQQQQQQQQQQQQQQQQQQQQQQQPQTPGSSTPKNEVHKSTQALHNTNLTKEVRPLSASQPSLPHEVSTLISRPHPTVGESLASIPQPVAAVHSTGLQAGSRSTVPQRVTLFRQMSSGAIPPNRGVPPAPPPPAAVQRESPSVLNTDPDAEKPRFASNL

How did the EC50 (mouse HCN1 (mHCN1) [1]) turn out when `C=C(C)[C@@H]1CCC(C)=C[C@H]1c1c(O)cc(CCCCC)cc1O` [cannabidiol] was run?
Its EC50 is 28.5 µM.

`CCCCCc1cc(O)c2c(c1)OC(C)(C)[C@@H]1CCC(C)=C[C@@H]21` [Δ9-tetrahydrocannabinol] was tested. Which IC50 (mouse HCN1 (mHCN1) [2]) did it give?
Its IC50 is 21.8 µM.
